The record followed here is patent US12522576B2, “Polymorphs of D9-THC naphthoylester” (priority 2019, dated 2026).

The structures appear in SMILES notation. Converted amounts (≈) assume the structure as drawn. “Also recorded” adds a separate entry of the source.

One data set in a line: Gravimetric solubility. Particulars: 20 °C, organic solvent or mixture, thermodynamic from solid, RT, read-out: Gravimetric Solubility at RT. Format: physicochemical. The method, then: Additional solids or solvents were added to visual solubility samples with vials less than 100 mg/mL to produce slurries at 20 and 50° C. for the subsequent equilibrium solubility assessment. The slurries were stirred at 20 and 50° C. overnight, filtered through 0.2 μm syringe filters and evaporated to dryness under reduced pressure at ambient temperature. Gravimetric solubility was calculated by dividing the dry solids residue mass (mg) by the solvent mass (g). The mg/g solubility values were then converted to mg/mL using solvent density.
The solubility of Group D acetone and DMF solvates were assessed in the corresponding solvents.

Data set [1] is classed as physicochemical. The following applies: for Time of conversion to Form C in the solid-state: ambient temperature. How it is done: Powder X-Ray Diffraction (PXRD). PXRD diffractograms were acquired on a PANalytical X'Pert Pro diffractometer using Ni-filtered Cu Ka (45 kV/40 mA) radiation and a step size of 0.03° 2θ and X'celerator™ RTMS (Real Time Multi-Strip) detector. Configuration on the incidental beam side: variable divergence slits (10 mm irradiated length), 0.04 rad Soller slits, fixed anti-scatter slit (0.50 o), and 10 mm beam mask. Configuration on the diffracted beam side: variable anti-scatter slit (10 mm observed length) and 0.04 rad Soller slit. Samples were mounted flat on zero-background Si wafers.
Group D solvates converted to Form C in the solid-state at different rates, depending on the solvent included. […] No phase-pure Group D was isolated from acetone-containing solvents, indicating the unstable nature of this solvate.

Data set [2] in a line: Polymorph screen of Exo-impurity. Format: physicochemical.
Data set [3] can be described thus: Competitive ripening (relative thermodynamic stability of non-solvated forms).
A short description of data set [4]: D9 solubility in the liquors at isolation temperature. In kind it is physicochemical. The following applies: organic solvent or mixture, thermodynamic from solid. How it is done: At the end of each experiment, suspensions were equilibrated at the isolation temperature (25 or 5° C.) for at least 18 hours and the solids and liquors separated by centrifugation at the isolation temperature. The Exo/D9/D8 ratio (Exo-D9-THC-naphthoylester impurity/D9-THC-naphthoylester/D8-THC-naphthoylester) was determined in both the isolated solids and the liquors, from which the % Exo-depletion in the isolated solids was calculated. Several solids were also isolated at elevated temperatures to assess the impact of the isolation temperature on Exo-impurity depletion.
In addition, the solubility of D9 in the liquors was determined in most of the explored solvents and used to estimate the yield.

The mark [5] stands for this setting: Experiment No. 20, Nitromethane, seed Form E.
Setting [6] is: Experiment No. 21, DMSO, seed Group D.
The mark [7] stands for this setting: Experiment No. 22, Acetone, seed Group D.
Setting [8] is: Experiment No. 23, MeCN, seed Group D.
[9] abbreviates: Experiment No. 24, P-Xylene/MeOH (10:90), seed Form E.

As for `CCCCCc1cc(OC(=O)c2ccc3ccccc3c2)c2c(c1)OC(C)(C)[C@@H]1CCC(C)=C[C@@H]21` [Acetone solvate of Group D], the solubility in the data set “Gravimetric solubility” (solvent Acetone, Batch 7) came to 98 mg/mL. The Stability of solvate result in data set [1] (no phase-pure Group D isolated from acetone-containing solvents) is on record as “unstable”.
On to `CCCCCc1cc(OC(=O)c2ccc3ccccc3c2)c2c(c1)OC(C)(C)[C@@H]1CCC(C)=C[C@@H]21` [DMF solvate of Group D], for which the solubility in “Gravimetric solubility” (solvent DMF, Batch 8) was found to be 95 mg/mL. Also, in data set [1], the “Time of conversion to Form C in the solid-state” value is reported as “overnight”.
Consider `CCCCCc1cc(OC(=O)c2ccc3ccccc3c2)c2c(c1)OC(C)(C)[C@@H]1CCC(C)=C[C@@H]21` [DMSO solvate], for which the “Time of conversion to Form C in the solid-state” value in data set [1] was “within five days”.
Turning to `C=C1CC[C@@H]2[C@@H](C1)c1c(OC(=O)c3ccc4ccccc4c3)cc(CCCCC)cc1OC2(C)C` [Exo, (6aR,10aR)-6,6-dimethyl-9-methylene-3-pentyl-6a,7,8,9,10,10a-hexahydro-6H-benzo[c]chromen-1-yl 2-naphthoate], the “Form Isolated at 5° C. 6 D (Exo)” value in data set [2] (setting [5]), in data set [2] (setting [6]), in data set [2] (setting [7]), in data set [2] (setting [8]) and in data set [2] (setting [9]) was “Input” throughout. Further, the “Form Isolated at RT 5 D (Exo)” value is “Input” in data set [2] (setting [5]); “Input” in data set [2] (setting [6]); “No” in data set [2] (setting [7]); “Input” in data set [2] (setting [8]); “Input” in data set [2] (setting [9]). For the same compound, in data set [2] (seeded slurries at RT and 5° C.), the Polymorphism result is on record as “No evidence of polymorphism”.
For the compound `CCCCCc1cc(OC(=O)c2ccc3ccccc3c2)c2c(c1)OC(C)(C)[C@@H]1CCC(C)=C[C@@H]21` [Form F, (6aR,10aR)-6a,7,8,10a-tetrahydro-6,6,9-trimethyl-3-pentyl-6H-dibenzo[b,d]pyran-1-yl ester], the “Form conversion by PXRD” value in data set [1] (wet-cake after air-drying for five minutes at ambient) was “converted to Form E”. The “Nature (thermodynamic stability of crystal form)” value in data set [3] (Table 6 summary) was “Transient”.
Consider `CCCCCc1cc(OC(=O)c2ccc3ccccc3c2)c2c(c1)OC(C)(C)[C@@H]1CCC(C)=C[C@@H]21` [Form H, (6aR,10aR)-6a,7,8,10a-tetrahydro-6,6,9-trimethyl-3-pentyl-6H-dibenzo[b,d]pyran-1-yl ester], for which the solubility in data set [4] (crystallisation liquors over suspended solid, 5 °C, batch 5, Toluene/MeOH (3:7), seed G, heat T 25, isolation T 5, 10.0 mL/g, SP 11) was determined as 71.4 mg/mL (≈ 152 mM); in data set [4] (crystallisation liquors over suspended solid, 25 °C, batch 5, EtOAC/EtOH (2:8), seed H, heat T 50, isolation T 25, 8.0 mL/g, SP 17, Exp 47), 36.2 mg/mL (≈ 77.2 mM); in data set [4] (crystallisation liquors over suspended solid, 25 °C, batch 5, Toluene/EtOH (1:9), seed G/H, heat T 55, isolation T 25, 9.9 mL/g, SP 16, Exp 46), 11.1 mg/mL (≈ 23.7 mM); in data set [4] (crystallisation liquors over suspended solid, 25 °C, batch 5, Toluene/EtOH (1:9), seed H, heat T 40, isolation T 25, 10.0 mL/g, SP 19, Exp 54), 19.6 mg/mL (≈ 41.8 mM); in data set [4] (crystallisation liquors over suspended solid, 25 °C, batch 5, Toluene/EtOH (2:8), seed H, heat T 25, isolation T 25, 5.0 mL/g, SP 18, Exp 52), 36.2 mg/mL (≈ 77.2 mM); in data set [4] (crystallisation liquors over suspended solid, 25 °C, batch 5, Toluene/MeOH (1:9), seed H, heat T 50, isolation T 25, 15.0 mL/g, SP 17, Exp 48), 6.8 mg/mL (≈ 14.5 mM). The solubility in data set [4] (crystallisation liquors over suspended solid, 25 °C, batch 5, Toluene/MeOH (2:8), seed H, heat T 50, isolation T 25, 6.0 mL/g, SP 17, Exp 41) is 25.1 mg/mL (≈ 53.6 mM); in data set [4] (crystallisation liquors over suspended solid, 25 °C, batch 5, Toluene/MeOH (3:7), seed G, heat T 25, isolation T 25, 5.5 mL/g, SP 7), 69.9 mg/mL (≈ 149 mM); in data set [4] (crystallisation liquors over suspended solid, 25 °C, batch 5, Toluene/MeOH (3:7), seed G, heat T 25, isolation T 25, 8.0 mL/g, SP 7), 80.2 mg/mL (≈ 171 mM); in data set [4] (crystallisation liquors over suspended solid, 25 °C, batch 5, Toluene/MeOH (3:7), seed G, heat T 25, isolation T 25, 10.0 mL/g, SP 7) it was 64.7 mg/mL (≈ 138 mM); in data set [4] (liquors of the equilibrated crystallisation suspension, 5 °C, Toluene/MeOH (3:7), isolation 5 °C, SP 11, 10.0 mL/g, read-out: D9 Solubility at Isolation T), 71.4 mg/mL (≈ 152 mM); in data set [4] (liquors of the equilibrated crystallisation suspension, 25 °C, EtOAC/EtOH (2:8), isolation 25 °C, SP 17, 8.0 mL/g, read-out: D9 Solubility at Isolation T), 36.2 mg/mL (≈ 77.2 mM). Also, the solubility amounted to 8.9 mg/mL (≈ 19 mM) in data set [4] (liquors of the equilibrated crystallisation suspension, 25 °C, EtOAc/MeOH (1:3), isolation 25 °C, SP 21, 10.0 mL/g, read-out: D9 Solubility at Isolation T); 11.1 mg/mL (≈ 23.7 mM) in data set [4] (liquors of the equilibrated crystallisation suspension, 25 °C, Toluene/EtOH (1:9), isolation 25 °C, SP 16, 9.9 mL/g, read-out: D9 Solubility at Isolation T); 19.6 mg/mL (≈ 41.8 mM) in data set [4] (liquors of the equilibrated crystallisation suspension, 25 °C, Toluene/EtOH (1:9), isolation 25 °C, SP 19, 10.0 mL/g, read-out: D9 Solubility at Isolation T); 36.2 mg/mL (≈ 77.2 mM) in data set [4] (liquors of the equilibrated crystallisation suspension, 25 °C, Toluene/EtOH (2:8), isolation 25 °C, SP 18, 5.0 mL/g, read-out: D9 Solubility at Isolation T); 6.8 mg/mL (≈ 14.5 mM) in data set [4] (liquors of the equilibrated crystallisation suspension, 25 °C, Toluene/MeOH (1:9), isolation 25 °C, SP 17, 15.0 mL/g, read-out: D9 Solubility at Isolation T); 25.1 mg/mL (≈ 53.6 mM) in data set [4] (liquors of the equilibrated crystallisation suspension, 25 °C, Toluene/MeOH (2:8), isolation 25 °C, SP 17, 6.0 mL/g, read-out: D9 Solubility at Isolation T). Further, the solubility in data set [4] (liquors of the equilibrated crystallisation suspension, 25 °C, Toluene/MeOH (3:7), isolation 25 °C, SP 7, 5.5 mL/g, read-out: D9 Solubility at Isolation T) was found to be 69.9 mg/mL (≈ 149 mM); in data set [4] (liquors of the equilibrated crystallisation suspension, 25 °C, Toluene/MeOH (3:7), isolation 25 °C, SP 7, 8.0 mL/g, read-out: D9 Solubility at Isolation T), 80.2 mg/mL (≈ 171 mM); in data set [4] (liquors of the equilibrated crystallisation suspension, 25 °C, Toluene/MeOH (3:7), isolation 25 °C, SP 7, 10.0 mL/g, read-out: D9 Solubility at Isolation T), 64.7 mg/mL (≈ 138 mM); in data set [4] (liquors of the equilibrated crystallisation suspension, 25 °C, batch 5, EtOAc/MeOH (1:3), seed H, heat T 55, isolation T 25, 10.0 mL/g, SP 21, Exp 34), 8.9 mg/mL (≈ 19 mM). Also, the Relative thermodynamic stability entry in data set [3] (at 5° C., ripening incomplete within 29 days) is reported as “likely the most-stable form”; in data set [3] (between 25-60° C., non-solvate forming solvents) it was “most stable non-solvated crystal form; also recorded: thermodynamically most-stable form”.

Usually solubility stands for the concentration that dissolves in the medium under given conditions.
